Activity calls are given as the source filed them. The rule behind the calls is not given here.
Assays:
[1] = Observed AUC (infinity) in BALB/c mouse at 10 mg/kg, ip measured after 24 hrs by LC-MS/MS analysis; format: ADME, organism-based; parameters: dose 10 mg/kg, time 24 hrs, route ip; details: in vivo
[2] = molecular target: T1, von Hippel-Lindau disease tumor suppressor/Son of sevenless homolog 1 (Homo sapiens, UniProt Q07889+P40337); assay: Protac activity at VHL/SOS1 in human NCI-H358 cells assessed as SOS1 protein degradation at 0.1 uM incubated for 24 hr by Western blot analysis relative to control; format: cell-based
Target sequence in this assay (P40337 whole entry, looked up): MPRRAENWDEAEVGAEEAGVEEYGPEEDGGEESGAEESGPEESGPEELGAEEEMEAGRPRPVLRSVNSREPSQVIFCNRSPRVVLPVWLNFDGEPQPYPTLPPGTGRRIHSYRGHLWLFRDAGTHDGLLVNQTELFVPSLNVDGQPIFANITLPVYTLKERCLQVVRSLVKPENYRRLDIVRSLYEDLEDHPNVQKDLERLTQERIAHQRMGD
Target sequence in this assay (Q07889 whole entry, looked up): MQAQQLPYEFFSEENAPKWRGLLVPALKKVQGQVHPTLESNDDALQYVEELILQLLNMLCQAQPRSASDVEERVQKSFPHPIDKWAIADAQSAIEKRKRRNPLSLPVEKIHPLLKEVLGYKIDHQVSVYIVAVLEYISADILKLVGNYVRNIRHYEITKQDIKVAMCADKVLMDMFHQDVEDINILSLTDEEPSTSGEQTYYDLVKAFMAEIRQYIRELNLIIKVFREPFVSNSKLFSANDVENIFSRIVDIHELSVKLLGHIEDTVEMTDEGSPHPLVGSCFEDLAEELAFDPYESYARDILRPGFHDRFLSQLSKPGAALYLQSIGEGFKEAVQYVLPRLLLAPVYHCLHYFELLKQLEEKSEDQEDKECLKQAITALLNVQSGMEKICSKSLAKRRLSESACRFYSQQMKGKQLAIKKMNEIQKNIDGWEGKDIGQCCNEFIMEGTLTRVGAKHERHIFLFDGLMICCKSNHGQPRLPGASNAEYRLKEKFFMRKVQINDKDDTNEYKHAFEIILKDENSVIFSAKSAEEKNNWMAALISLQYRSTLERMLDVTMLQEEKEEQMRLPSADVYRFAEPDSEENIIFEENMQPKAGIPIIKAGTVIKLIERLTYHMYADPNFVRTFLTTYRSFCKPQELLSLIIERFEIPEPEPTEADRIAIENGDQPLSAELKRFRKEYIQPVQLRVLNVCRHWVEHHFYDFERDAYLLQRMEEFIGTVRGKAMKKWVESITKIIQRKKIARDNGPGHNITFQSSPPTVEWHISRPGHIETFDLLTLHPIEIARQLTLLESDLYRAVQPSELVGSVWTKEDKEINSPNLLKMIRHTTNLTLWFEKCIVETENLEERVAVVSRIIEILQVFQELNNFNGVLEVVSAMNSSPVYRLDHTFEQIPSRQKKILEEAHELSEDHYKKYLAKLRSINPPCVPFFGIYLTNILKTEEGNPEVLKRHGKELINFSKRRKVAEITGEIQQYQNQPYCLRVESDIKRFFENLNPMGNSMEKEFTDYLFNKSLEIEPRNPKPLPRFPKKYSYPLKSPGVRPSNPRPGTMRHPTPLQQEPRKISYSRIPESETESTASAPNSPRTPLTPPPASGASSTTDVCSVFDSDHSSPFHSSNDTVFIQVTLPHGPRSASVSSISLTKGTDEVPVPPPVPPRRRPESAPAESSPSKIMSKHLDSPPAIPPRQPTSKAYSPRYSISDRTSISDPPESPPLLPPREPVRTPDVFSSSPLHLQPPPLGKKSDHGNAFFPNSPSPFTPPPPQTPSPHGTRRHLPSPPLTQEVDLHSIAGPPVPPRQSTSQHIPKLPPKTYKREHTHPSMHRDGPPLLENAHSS

SK-LU-1 = assay: Antiproliferative activity against human SK-LU-1 cells harboring KRAS G12D mutant assessed as cell growth inhibition incubated for 7 days by CellTiter-Glo 3D cell viability assay; format: functional, cell-based; details: SK-LU-1, 168 h
SW-620 = assay: Antiproliferative activity against human SW620 cells harboring KRAS G12V mutant assessed as cell growth inhibition incubated for 7 days by CellTiter-Glo 3D cell viability assay; format: functional, cell-based; details: SW-620, 168 h
NCI-H358 [3] = assay: Effect of compound on human NCI-H358 cells assessed as decrease in phophorylated ERK level at 1 uM and measured after 6 to 24 hr by Western blot analysis; format: functional, cell-based; details: time 6-24 hrs
[4] = molecular target: T2, von Hippel-Lindau disease tumor suppressor/Son of sevenless homolog 1 (Homo sapiens, UniProt Q07889+P40337, G12C); assay: Protac activity at VHL/SOS1 in human NCI-H358 cells harboring KRAS G12C mutant assessed as SOS1 protein degradation incubated for 24 hr by Western blot analysis; format: cell-based
T2 sequence (P40337 whole entry, looked up, stated change not applied): as the sequence (P40337 whole entry, looked up) above
T2 sequence (Q07889 whole entry, looked up, stated change not applied): as the sequence (Q07889 whole entry, looked up) above

[5] = Tmax in BALB/c mouse at 10 mg/kg, ip measured after 24 hrs by LC-MS/MS analysis; format: ADME, organism-based; details: in vivo
[6] = molecular target: T1, von Hippel-Lindau disease tumor suppressor/Son of sevenless homolog 1; assay: Protac activity at VHL/SOS1 in human NCI-H358 cells assessed as SOS1 protein degradation at 1 uM incubated for 24 hr by Western blot analysis relative to control; format: cell-based
Target sequence in this assay (P40337 whole entry, looked up): as the sequence (P40337 whole entry, looked up) above
Target sequence in this assay (Q07889 whole entry, looked up): as the sequence (Q07889 whole entry, looked up) above

NCI-H358 [7] = assay: Effect of compound on human NCI-H358 cells stimulated with EGF assessed as decrease in KRAS-GTP level incubated for 24 hr by RAS-G-LISA assay; format: functional, cell-based
[8] = molecular target: Von Hippel-Lindau disease tumor suppressor/Elongin B/Elongin C (Homo sapiens, UniProt P40337); assay: Binding affinity to VCB E3 ligase (unknown origin) assessed as binary equilibrium dissociation constant by surface plasmon resonance analysis; format: protein-complex assay
Chain of Von Hippel-Lindau disease tumor suppressor/Elongin B/Elongin C (P40337 whole entry, looked up): as the sequence (P40337 whole entry, looked up) above

[9] = Toxicity in BALB/c nude mouse xenografted with human NCI-H358 cells assessed as effect on body weight at 20 to 50 mg/kg, IT twice weekly for 5 weeks; format: organism-based; details: in vivo, other, 840 h, dose 20-50 mg/kg
[10] = molecular target: von Hippel-Lindau disease tumor suppressor/Son of sevenless homolog 1/GTPase KRas (Homo sapiens) (UniProt Q07889+P01116+P40337); assay: Protac activity at SOS1/KRAS E3 ligase in human NCI-H358 cells assessed as KRAS protein level at 2.5 uM measured after 24 hr by […] analysis; format: cell-based
[11] = Acute toxicity in BALB/c mouse assessed as change in body weight at 10 mg/kg, ip once daily for 7 days; format: organism-based; details: in vivo, 168 h, time 7 day
NCI-H358 [12] = assay: Effect of compound on human NCI-H358 cells assessed as increase in phophorylated ERK level at 1 uM incubated for 4 hr by Western blot analysis; format: functional, cell-based
Homo sapiens = species on record: Homo sapiens; assay: Co-operativity factor, Ratio of Kd for Binding affinity to VCB E3 ligase (unknown origin) assessed as binary equilibrium dissociation constant to Kd for binding affinity to SOS1/VCB E3 ligase (unknown origin) assessed as ternary dissociation constant
[13] = molecular target: T3, von Hippel-Lindau disease tumor suppressor/Son of sevenless homolog 2 (Homo sapiens) (UniProt P40337+Q07890); assay: Protac activity at VHL/SOS2 in human ASPC1 cells assessed as SOS2 mRNA level at 1 uM incubated for 24 to 72 hr by qRT PCR analysis; format: cell-based; details: time 24-72 hrs
T3 sequence (P40337 whole entry, looked up): as above
T3 sequence (Q07890 whole entry, looked up): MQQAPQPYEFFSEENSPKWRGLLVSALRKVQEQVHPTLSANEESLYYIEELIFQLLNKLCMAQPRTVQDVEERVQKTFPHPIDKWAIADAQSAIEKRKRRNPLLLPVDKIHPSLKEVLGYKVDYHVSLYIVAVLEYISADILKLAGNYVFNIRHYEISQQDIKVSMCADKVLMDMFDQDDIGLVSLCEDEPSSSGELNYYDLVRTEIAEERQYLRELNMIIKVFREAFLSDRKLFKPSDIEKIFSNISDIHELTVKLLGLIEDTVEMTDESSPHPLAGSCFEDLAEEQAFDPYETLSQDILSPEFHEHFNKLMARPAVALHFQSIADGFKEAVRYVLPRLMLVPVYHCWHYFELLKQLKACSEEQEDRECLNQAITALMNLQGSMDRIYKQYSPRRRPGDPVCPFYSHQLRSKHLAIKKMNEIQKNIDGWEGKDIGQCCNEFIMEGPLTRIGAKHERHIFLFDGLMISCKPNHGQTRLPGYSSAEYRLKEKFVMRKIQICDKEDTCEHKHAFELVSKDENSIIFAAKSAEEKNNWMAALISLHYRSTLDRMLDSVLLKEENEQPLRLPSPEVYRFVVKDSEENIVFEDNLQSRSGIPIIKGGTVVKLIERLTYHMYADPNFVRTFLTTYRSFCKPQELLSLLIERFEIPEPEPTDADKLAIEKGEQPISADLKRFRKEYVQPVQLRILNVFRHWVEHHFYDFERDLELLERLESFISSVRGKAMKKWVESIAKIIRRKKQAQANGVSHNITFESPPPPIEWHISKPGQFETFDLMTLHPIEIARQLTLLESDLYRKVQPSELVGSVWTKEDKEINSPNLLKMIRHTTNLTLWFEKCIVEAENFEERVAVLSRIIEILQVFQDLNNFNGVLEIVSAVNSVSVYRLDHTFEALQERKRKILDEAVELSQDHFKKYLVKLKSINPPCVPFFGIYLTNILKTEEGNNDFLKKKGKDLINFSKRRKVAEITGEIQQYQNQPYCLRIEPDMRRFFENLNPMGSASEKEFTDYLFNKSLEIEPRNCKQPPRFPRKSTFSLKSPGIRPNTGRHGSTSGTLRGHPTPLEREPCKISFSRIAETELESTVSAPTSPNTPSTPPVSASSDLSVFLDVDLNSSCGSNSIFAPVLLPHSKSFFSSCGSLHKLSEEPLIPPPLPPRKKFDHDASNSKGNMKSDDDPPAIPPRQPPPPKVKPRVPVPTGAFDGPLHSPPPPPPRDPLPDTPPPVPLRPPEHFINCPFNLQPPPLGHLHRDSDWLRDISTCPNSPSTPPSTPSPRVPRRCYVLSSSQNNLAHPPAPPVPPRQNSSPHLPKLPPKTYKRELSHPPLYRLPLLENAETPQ

[14] = Acute toxicity in BALB/c mouse assessed as change in body weight at 20 mg/kg, ip once daily for 7 days; format: organism-based; details: in vivo, 168 h, time 7 day
[15] = molecular target: T3, von Hippel-Lindau disease tumor suppressor/Son of sevenless homolog 2 (Homo sapiens); assay: Protac activity at VHL/SOS2 in human NCI-H358 cells assessed as SOS2 mRNA level at 1 uM incubated for 24 to 72 hr by qRT PCR analysis; format: cell-based; details: time 24-72 hrs
[16] = molecular target: T2, von Hippel-Lindau disease tumor suppressor/Son of sevenless homolog 1; assay: Protac activity at VHL/SOS1 in human MIA PaCa-2 cells harboring KRAS G12C mutant assessed as SOS1 protein degradation incubated for 24 hr by Western blot analysis; format: cell-based
[17] = Binding affinity to SOS1/VCB E3 ligase (unknown origin) assessed as ternary dissociation constant by surface plasmon resonance analysis; parameters: species or system Homo sapiens
[18] = molecular target: T1, von Hippel-Lindau disease tumor suppressor/Son of sevenless homolog 1; assay: Protac activity at VHL/SOS1 in human A549 cells harboring KRAS […] mutant assessed as SOS1 protein degradation incubated for 24 hr by Western blot analysis; format: cell-based
NCI-H358 [19] = assay: Antitumor activity against human NCI-H358 cells xenografted in BALB/c nude mouse assessed as tumor growth inhibition at 20 mg/kg/day, ip incubated for 21 days; format: functional; details: NCI-H358, 504 h, time 21 day, read-out: TGI
[20] = Observed MRT (infinity) in BALB/c mouse at 10 mg/kg, ip measured after 24 hrs by LC-MS/MS analysis; format: ADME, organism-based; details: in vivo
NCI-H358 [21] = assay: Antitumor activity against human NCI-H358 cells xenografted in BALB/c nude mouse assessed as tumor growth inhibition at 10 mg/kg/day, ip incubated for 21 days; format: functional; details: NCI-H358, 504 h, time 21 day, read-out: TGI
ASPC1 = assay: Antiproliferative activity against human ASPC1 cells harboring KRAS G12D mutant assessed as cell growth inhibition incubated for 7 days by CellTiter-Glo 3D cell viability assay; format: functional, cell-based; details: ASPC1, 168 h
[22] = molecular target: von Hippel-Lindau disease tumor suppressor/Son of sevenless homolog 1 (Homo sapiens, UniProt Q07889+P40337, G12R); assay: Protac activity at VHL/SOS1 in human CAL-62 cells harboring KRAS G12R mutant assessed as SOS1 protein degradation incubated for 24 hr by Western blot analysis; format: cell-based
Mus musculus = assay: In vivo degradation of SOS1 in BALB/c nude mouse xenografted with human NCI-H358 cells at 20 to 50 mg/kg, IT incubated for 21 days by immunohistochemistry analysis; format: functional, organism-based; details: dose 20-50 mg/kg, time 21.0 day
A549 = assay: Antiproliferative activity against human A549 cells harboring KRAS G12S mutant assessed as cell growth inhibition incubated for 7 days by CellTiter-Glo 3D cell viability assay; format: functional, cell-based; details: A549, 168 h
NCI-H358 [23] = assay: Antiproliferative activity against human NCI-H358 cells harboring KRAS G12C mutant assessed as growth inhibition incubated for 7 days by CellTiter-Glo 3D cell viability assay; format: functional, cell-based; details: NCI-H358, 168 h
MIA PaCa-2 = assay: Antiproliferative activity against human MIA PaCa-2 cells harboring KRAS G12C mutant assessed as cell growth inhibition incubated for 7 days by CellTiter-Glo 3D cell viability assay; format: functional, cell-based; details: MIA PaCa-2, 168 h
[24] = molecular target: T1, von Hippel-Lindau disease tumor suppressor/Son of sevenless homolog 1; assay: Protac activity at VHL/SOS1 in human NCI-H358 cells assessed as SOS1 protein degradation incubated for 24 hr by Western blot analysis; format: cell-based

Work on `Cc1cc(Cn2c(N3CC4(CNC4)C3)nc3c(N4CCN(CCCCCCCCC(=O)N[C@H](C(=O)N5C[C@H](O)C[C@H]5C(=O)N[C@@H](C)c5ccc(-c6scnc6C)cc5)C(C)(C)C)CC4)cc(Cl)cc32)cc(C)c1F` yielded an AUC(0-inf) [1] of 4420 ng·h/mL, an Activity [2] of 56.2% and an IC50 (SK-LU-1) of 0.115 µM. The IC50 (SW-620) was 0.199 µM, the Activity (NCI-H358 [3]) was “Active” and the DC50 [4] was 0.098 µM. The Tmax [5] was 0.25 h, the Activity [6] was 92.5% and the Activity (NCI-H358 [7]) was “Active”. For the same molecule, the Kd [8] was 0.056 µM, the Activity [9] was “Non-Toxic” and the Activity [10] was “Active”. The Activity [11] was “Non-Toxic”, the Activity (NCI-H358 [12]) was “Active” and the Ratio (Homo sapiens) was 15.1. The Activity [13] was “Active”, the Activity [14] was “Non-Toxic” and the Activity [15] was “Active”. The DC50 [16] was 0.255 µM, the Kd [17] was 0.0037 µM and the DC50 [18] was 0.022 µM. The inhibition in vivo at 20 mg/kg/day (NCI-H358 [19]) was 86.1%, the MRT inf [20] was 10.2 h and the inhibition in vivo at 10 mg/kg/day (NCI-H358 [21]) was 72.5%. The IC50 (ASPC1) was 0.307 µM, the DC50 [22] was 0.126 µM and the Activity (Mus musculus) was “Active”. It also gave an IC50 (A549) of 0.232 µM, an IC50 (NCI-H358 [23]) of 0.525 µM and an IC50 (MIA PaCa-2) of 0.218 µM. For the same molecule, the DC50 [24] was 0.0984 µM.

Reference: ChEMBL document CHEMBL5154769, “Discovery of the First-in-Class Agonist-Based SOS1 PROTACs Effective in Human Cancer Cells Harboring Various KRAS Mutations” (J Med Chem, 2022)
